# B1: catalase: an enzyme efficiently converting H2O2 to H2O and O2 (protein, UniProt P04040 2-527, looked up)
# Catalase: ADSRDPASDQMQHWKEQRAAQKADVLTTGAGNPVGDKLNVITVGPRGPLLVQDVVFTDEMAHFDRERIPERVVHAKGAGAFGYFEVTHDITKYSKAKVFEHIGKKTPIAVRFSTVAGESGSADTVRDPRGFAVKFYTEDGNWDLVGNNTPIFFIRDPILFPSFIHSQKRNPQTHLKDPDMVWDFWSLRPESLHQVSFLFSDRGIPDGHRHMNGYGSHTFKLVNANGEAVYCKFHYKTDQGIKNLSVEDAARLSQEDPDYGIRDLFNAIATGKYPSWTFYIQVMTFNQAETFPFNPFDLTKVWPHKDYPLIPVGKLVLNRNPVNYFAEVEQIAFDPSNMPPGIEASPDKMLQGRLFAYPDTHRHRLGPNYLHIPVNCPYRARVANYQRDGPMCMQDNQGGAPNYYPNSFGAPEQQPSALEHSIQYSGEVRRFNTANDDNVTQVRAFYVNVLNEEQRKRLCENIAGHLKDAQIFIQKKAVKNFTEVHPDYGSHIQALLDKYNAEKPKNAIHTFVQSGSHLAAREKANL
# Tests used:
# Type in all cases: cell-based, human
# NK cells [1] = test: ADCC: NK cells with RAJI cells coated with Rituximab or Ofatumumab; settings: Rituximab 0.5 μg/mL or Ofatumumab 0.05 μg/mL, E:T 9:1
# Protocol: Lymphocytes were isolated and pre-treated when indicated, with compound and H2O2, as described above. For degranulation/measuring CD107a expression, NK cells were co-cultured with K562 tumour cells at an effector target ratio 1:1 in the presence of anti-CD107a in U-bottom plates. After 2 h, GolgiStop™ and GolgiPlug™ (BD Bioscience) were added and cells were harvested after an additional 4 h co-culture and stained for CD56 and CD3, as described above. For positive control, 25 ng/ml PMA (Sigma Aldrich) and 500 ng/mL Ionomycin (Sigma Aldrich) were added.
# (§1) For cytotoxic assay, a standard 4 h [Cr^51]-release assay was used. Briefly, tumour cells were harvested and labeled with 51Cr (PerkinElmer) and used as target cells. Effector cells, NK cells and T cells, were co-cultured in 96-well V-bottom plate with indicated tumour cells at the stated effector target ratio (E:T). The supernatant was collected onto LUMA plates (Perkin-Elmer) and radioactivity/tumour cell lysis was detected by MicroBeta2 (Perkin Elmer). Target cell killing measured by % specific lysis and calculated using the formula: ((experimental release-spontaneous release)/(maximum release-spontaneous release))*100.
# For analyzing ADCC, NK cells were cultured with RAJI cells and Rituximab (0.5 μg/mL, MabThera, Roche) or Ofatumumab (0.05 μg/mL, Arzerra, Novartis).
# [2] = test system: tumour infiltrating lymphocytes (TIL); test: IFNγ release by pre-treated TIL on autologous tumour cells after H2O2 treatment; settings: KADA and ANRU melanoma TIL, E:T 4:1, vs control group
# Protocol: ., 2020). […] For Nrf2 inhibition, NK cells were treated with 50 μM ML-385 (Sigma-Aldrich) in parallel. […] Cells were washed with medium and then used for further experiments. For monocyte experiments, autologous NK cell-monocytes or TIL-monocytes were used. […] Stimulated monocytes were activated with 100 ng/ml PMA for 1 min, washed and added at indicated ratio, the number of NK cell/TIL was kept constant. […] For cytokine release assay, NK cells and TIL were cultured with indicated tumour cells at the effector target ratio 4:1 (E:T) for 24 h in U-bottom plates. IFNγ secretion was measured using human IFN-γ ELISA development kit (Mabtech) following the manufacturer's instructions.
# NK cells [3] = test: [Cr51]-release assay: lysis of tumour target cells by pre-treated NK cells after H2O2 exposure; settings: for Lysis of K562 target cells by pre-treated NK cells after H2O2 exposure: 18 h pre-treatment, H2O2 1 h up to 250 μM, E:T 9:1, vs control NK cells; for Suppressive effect of H2O2 on lymphocyte function (killing, degranulation, IFNγ): expanded NK cells and patient derived TIL, pre-treatment; for Dependence of the protective effect on Nrf2 activation: qPCR of Nrf2 target genes and K562 lysis with/without Nrf2 inhibitor ML385
# Text: Peripheral blood samples (anonymized by-products of blood donations from healthy adult donors) were purchased from Karolinska University Hospital Blood Bank. Peripheral blood mononuclear cells (PBMC) were isolated from healthy donor buffy coats using density centrifugation with Ficoll® Paque Plus (GE Healthcare). NK cells and CD14^+ monocytes were isolated from PBMCs using NK cell isolation kit or CD14^+ microbeads, respectively (both Miltenyi Biotec), following the manufacturer's instructions. For NK cell expansion, a EBV-LCL feeder cell line was used, irradiated at 100 gy and then co-cultured with NK cells, at the ratio 10:1 LCL:NK, in X-Vivo 20 (Lonza) supplemented with 10% human AB serum and 1000 U/mL IL-2 (Proleukin). From day 6 or 10, NK cells were kept at 0.5×10^6 cells/mL or 1×10^6/mL, respectively. Purity of expanded NK cell was assessed at day 10 by flow cytometry, see below.
# Lymphocytes were pre-treated for 18 h with Auranofin (AUF, with the concentration 1 μg/mL for NK cells and 0.5 μg/mL for TIL, if not indicated differently), DL-Sulforaphane (SUL) or Dimethyl Fumarate (DMF) (all Sigma-Aldrich) at indicated concentrations.
# (§2) For Nrf2 inhibition, NK cells were treated with 50 μM ML-385 (Sigma-Aldrich) in parallel. For H2O2 treatment, lymphocyte cells were washed and resuspended to 1×10^6 cells/mL in medium and exposed to indicated H2O2 (Sigma-Aldrich) concentration for 1 h at 37° C. Cells were washed with medium and then used for further experiments. For monocyte experiments, autologous NK cell-monocytes or TIL-monocytes were used. NK cells/TIL were isolated and pre-treated with 0.5 μg/mL AUF, as described above, and co-cultured with unstimulated at the ratio, 1:2 M:NK, or stimulated monocytes at the ratio, 1:1 M:NK, if not indicated otherwise. Stimulated monocytes were activated with 100 ng/ml PMA for 1 min, washed and added at indicated ratio, the number of NK cell/TIL was kept constant. As control, H2O2 was used at indicated concentration. Cells were co-cultured for 2 h and then effector cells were stained for intracellular ROS (see flow cytometry) or used as effector cells in Cr^51 release assay (E:T ratio 10:1).
# as §1
# Lymphocytes were pre-treated for 18 h with Auranofin (AUF, with the concentration 1 μg/mL for NK cells and 0.5 μg/mL for TIL. As AUF was reconstituted in DMSO, control NK cells were pre-treated with DMSO with an equivalent volume to the highest compound concentration. For N-acetylcysteine (NAC, Invitrogen) treatment, DMSO pre-treated cells were incubated for 1 h with 5 or 10 mM NAC prior to H2O2 treatment. For H2O2 treatment, lymphocytes were washed and resuspended to 1×10^6 cells/mL in RPMI containing the indicated H2O2 (Sigma-Aldrich) concentration for 1 h at 37° C. 5% CO2. Cells were washed with medium and then used for further experiments.
# [4] = test system: Nrf2 target genes (NQO1, HMOX1, TXNRD1, Keap1); test: qPCR of classical Nrf2 target genes in NK cells; settings: kinetic, fold change vs untreated
# Protocol: Lymphocytes were pre-treated with AUF, SUL or DMF as described above. RNA was isolated using TRIzol™ Plus RNA Purification Kit (Invitrogen). cDNA was generated using the iScript™ cDNA Synthesis Kit (Bio-Rad) and qPCR was done using iTaq™ Universal SYBR® Green Supermix (Bio-Rad) in the CFX96 Touch Real-Time PCR Detection System (Bio-Rad). Fold change expression from untreated cells was calculated using the 2^-ΔΔCt formula with b-actin as reference gene. Evaluated genes were NAD(P)H Quinone Dehydrogenase 1 (NQO1), Kelch Like ECH Associated Protein 1 (Keap1), Heme Oxygenase 1 (HMOX1) and Thioredoxin Reductase 1 (TXNRD1).
# NK cells [5] = test: NK cells co-cultured with PMA-activated autologous monocytes: intracellular ROS and K562 lysis; settings: 100 U/mL catalase; intracellular ROS and K562 lysis
# Protocol: as §2
# Monocytes were stimulated with 100 ng/ml PMA for 1 min and washed with HBSS (Gibco). Cells were resuspended in HBSS 5% FBS and added to a 96-well Optiplate (Perkin Elmer) containing HBSS 5% FBS and Luminol (56 μM; Sigma). Luminescence was measured immediately using a EnSpire plate reader (Perkin Elmer).
# For detection of intracellular ROS levels, for NK cells CellROX™ Deep Red Reagent (Invitrogen) were used. Briefly, NK cells were stained with 2.5 μM CellROX solution in RPMI for 30 min at 37° C. and then stained for flow cytometry with anti-CD56 and anti-CD3 (both Biolegend).
# as §1
molecule,measurement,setting,value
Rituximab: antibody therapy targeting CD20,Recognition of antibody-coated RAJI cells by NK cells (killing and CD107a degranulation),NK cells [1],efficient recognition of the target cells
"C[S+]([O-])CCCCN=C=S (racemic) [SUL, 1-Isothiocyanato-4-(methanesulfinyl)butane]",Recognition of autologous tumour cells by TIL (IFNγ production) upon exposure to H2O2,[2],increased recognition of their autologous tumour cells
same,Lysis of K562 target cells by pre-treated NK cells after H2O2 exposure,NK cells [3],comparable protective effects as AUF
same,"Suppressive effect of H2O2 on lymphocyte function (killing, degranulation, IFNγ)",NK cells [3],counteracts the suppressive effect of H2O2 on lymphocyte function
same,Dependence of the protective effect on Nrf2 activation,NK cells [3],dependent on Nrf2 activation
same,Influence on Nrf2 target genes in NK cells compared with AUF,[4],comparable influence
"COC(=O)/C=C/C(=O)OC [DMF, Dimethyl (E)-butenedioate]",Recognition of autologous tumour cells by TIL (IFNγ production) upon exposure to H2O2,[2],increased recognition of their autologous tumour cells
same,Lysis of K562 target cells by pre-treated NK cells after H2O2 exposure,NK cells [3],comparable protective effects as AUF
same,"Suppressive effect of H2O2 on lymphocyte function (killing, degranulation, IFNγ)",NK cells [3],counteracts the suppressive effect of H2O2 on lymphocyte function
same,Dependence of the protective effect on Nrf2 activation,NK cells [3],dependent on Nrf2 activation
same,Influence on Nrf2 target genes in NK cells compared with AUF,[4],comparable influence
Cc1ccccc1C(=O)N1CCc2cc(-c3nc(NC(=O)Cc4ccc5c(c4)OCO5)sc3C)ccc21 [ML385],Effect of ML385 on K562 lysis by DMSO pre-treated control NK cells,NK cells [3]; 50 μM ML385,no effects
same,"Lysis of K562 by NK cells pre-treated with AUF, SUL or DMF in combination with ML385","NK cells [3]; 50 μM ML385, cells exposed to H2O2",significantly reduced
Ofatumumab: antibody therapy targeting CD20,Recognition of antibody-coated RAJI cells by NK cells (killing and CD107a degranulation),NK cells [1],efficient recognition of the target cells
"CC(=O)N[C@@H](CS)C(=O)O [NAC, N-acetylcysteine]","Protection of K562 lysis by control NK cells pre-treated with NAC, compared to AUF","NK cells [3]; 1 h, 5 or 10 mM NAC, increased H2O2 concentrations",less protection
B1,Lysis of K562 target cells by control NK cells with catalase added before H2O2,NK cells [3]; catalase added to control NK cells before incubation with H2O2,improve the function of the control NK cells in a comparable way to AUF pre-treatment
same,Difference between activated monocytes or H2O2 treated control NK cells in the presence of catalase,NK cells [5],no difference

# — patent US20240277767A1, “METHODS AND USES” (PROLEUKOCYTE AB, priority 2021, published 2024)
